Assay results: the NIST ThermoML archive (doi:10.1016/j.fluid.2004.09.013)
± gives the expanded uncertainty stated by the source.

Conditions: for mass density: Fluid (supercritical or subcritical phases), Vibrating tube method

C/C=C/C [(E)-2-butene]
Conditions	Critical density [kg/m3]	mass density [kg/m3]
453.25 K, 34989 kPa	–	504.85 ± 1.3
453.25 K, 39997 kPa	–	515.79 ± 1.4
458.25 K, 5018 kPa	–	143.71 ± 0.66
458.25 K, 15001 kPa	–	424.61 ± 0.95
458.25 K, 20004 kPa	–	451.96 ± 1.1
458.25 K, 24994 kPa	–	471.69 ± 1.1
458.25 K, 30004 kPa	–	487.34 ± 1.2
458.25 K, 34994 kPa	–	500.33 ± 1.3
458.25 K, 40004 kPa	–	511.57 ± 1.4
458.26 K, 9992 kPa	–	376.95 ± 0.89
463.25 K, 5019 kPa	–	132.86 ± 0.64
463.25 K, 9998 kPa	–	364.93 ± 0.87
463.25 K, 14997 kPa	–	416.89 ± 0.94
463.25 K, 20001 kPa	–	445.66 ± 1
463.25 K, 24994 kPa	–	466.25 ± 1.1
463.25 K, 29992 kPa	–	482.44 ± 1.2
463.25 K, 34997 kPa	–	495.87 ± 1.3
463.25 K, 39985 kPa	–	507.37 ± 1.4
468.25 K, 5019 kPa	–	124.67 ± 0.62
468.25 K, 14984 kPa	–	408.44 ± 0.92
468.25 K, 19991 kPa	–	439.31 ± 1
468.25 K, 24990 kPa	–	460.78 ± 1.1
468.25 K, 29991 kPa	–	477.55 ± 1.2
468.25 K, 34993 kPa	–	491.38 ± 1.3
468.25 K, 39991 kPa	–	503.2 ± 1.4
468.26 K, 9993 kPa	–	352.22 ± 0.85
473.25 K, 5018 kPa	–	118.06 ± 0.6
473.25 K, 9998 kPa	–	339.4 ± 0.83
473.25 K, 15002 kPa	–	400.67 ± 0.91
473.25 K, 19991 kPa	–	432.96 ± 1
473.25 K, 24985 kPa	–	455.31 ± 1.1
473.25 K, 29991 kPa	–	472.65 ± 1.2
473.25 K, 35002 kPa	–	486.9 ± 1.3
473.25 K, 39993 kPa	–	499.03 ± 1.4
478.25 K, 5018 kPa	–	112.62 ± 0.57
478.25 K, 9993 kPa	–	326 ± 0.8
478.25 K, 14989 kPa	–	392.47 ± 0.89
478.25 K, 19985 kPa	–	426.52 ± 0.99
478.25 K, 25003 kPa	–	449.85 ± 1.1
478.25 K, 29992 kPa	–	467.75 ± 1.2
478.25 K, 35005 kPa	–	482.42 ± 1.3
478.25 K, 40012 kPa	–	494.85 ± 1.4
483.25 K, 5018 kPa	–	107.95 ± 0.55
483.25 K, 9988 kPa	–	312.49 ± 0.77
483.25 K, 14996 kPa	–	384.28 ± 0.88
483.25 K, 19982 kPa	–	420.06 ± 0.98
483.25 K, 25007 kPa	–	444.4 ± 1.1
483.25 K, 29987 kPa	–	462.83 ± 1.2
483.25 K, 35000 kPa	–	477.93 ± 1.2
483.25 K, 39990 kPa	–	490.66 ± 1.3
488.25 K, 5018 kPa	–	103.9 ± 0.53
488.25 K, 9985 kPa	–	299.1 ± 0.75
488.25 K, 14997 kPa	–	376.01 ± 0.86
488.25 K, 20002 kPa	–	413.74 ± 0.97
488.25 K, 25005 kPa	–	438.9 ± 1.1
488.25 K, 29988 kPa	–	457.94 ± 1.1
488.25 K, 34992 kPa	–	473.43 ± 1.2
488.25 K, 40013 kPa	–	486.57 ± 1.3
493.25 K, 5018 kPa	–	100.36 ± 0.5
493.25 K, 9986 kPa	–	285.99 ± 0.72
493.25 K, 14990 kPa	–	367.61 ± 0.85
493.25 K, 20001 kPa	–	407.28 ± 0.95
493.25 K, 25006 kPa	–	433.4 ± 1.1
493.25 K, 29986 kPa	–	453.04 ± 1.1
493.25 K, 35005 kPa	–	469.02 ± 1.2
493.25 K, 39997 kPa	–	482.38 ± 1.3
498.25 K, 5018 kPa	–	97.2 ± 0.48
498.25 K, 9992 kPa	–	273.51 ± 0.7
498.25 K, 14982 kPa	–	359.21 ± 0.83
498.25 K, 19993 kPa	–	400.8 ± 0.94
498.25 K, 25004 kPa	–	427.91 ± 1
498.25 K, 29983 kPa	–	448.16 ± 1.1
498.25 K, 35000 kPa	–	464.56 ± 1.2
498.25 K, 39994 kPa	–	478.26 ± 1.3
503.25 K, 5019 kPa	–	94.38 ± 0.46
503.25 K, 9995 kPa	–	261.54 ± 0.67
503.25 K, 14996 kPa	–	351.04 ± 0.82
503.25 K, 19991 kPa	–	394.38 ± 0.93
503.25 K, 25000 kPa	–	422.42 ± 1
503.25 K, 30008 kPa	–	443.38 ± 1.1
503.25 K, 35007 kPa	–	460.15 ± 1.2
503.25 K, 39992 kPa	–	474.14 ± 1.3
508.25 K, 5017 kPa	–	91.73 ± 0.44
508.25 K, 9986 kPa	–	249.99 ± 0.64
508.25 K, 14991 kPa	–	342.7 ± 0.8
508.25 K, 19987 kPa	–	387.81 ± 0.92
508.25 K, 24998 kPa	–	416.93 ± 1
508.25 K, 30007 kPa	–	438.53 ± 1.1
508.25 K, 34991 kPa	–	455.68 ± 1.2
508.25 K, 39996 kPa	–	470.06 ± 1.3
513.25 K, 5019 kPa	–	89.39 ± 0.42
513.25 K, 9982 kPa	–	239.32 ± 0.62
513.25 K, 14985 kPa	–	334.4 ± 0.79
513.25 K, 19985 kPa	–	381.11 ± 0.9
513.25 K, 24987 kPa	–	411.43 ± 1
513.25 K, 29999 kPa	–	433.67 ± 1.1
513.25 K, 34992 kPa	–	451.29 ± 1.2
513.25 K, 39993 kPa	–	465.98 ± 1.3
518.24 K, 30001 kPa	–	428.87 ± 1.1
518.24 K, 35000 kPa	–	446.94 ± 1.2
518.25 K, 5016 kPa	–	87.15 ± 0.4
518.25 K, 9990 kPa	–	229.8 ± 0.6
518.25 K, 14984 kPa	–	326.26 ± 0.77
518.25 K, 20002 kPa	–	374.92 ± 0.89
518.25 K, 24995 kPa	–	406.05 ± 1
518.25 K, 39988 kPa	–	461.92 ± 1.3
523.24 K, 24994 kPa	–	400.62 ± 0.99
523.24 K, 39996 kPa	–	457.91 ± 1.3
523.25 K, 5016 kPa	–	85.12 ± 0.39
523.25 K, 9982 kPa	–	220.69 ± 0.63
523.25 K, 14998 kPa	–	318.44 ± 0.8
523.25 K, 20000 kPa	–	368.56 ± 0.89
523.25 K, 29990 kPa	–	424.03 ± 1.1
523.25 K, 34989 kPa	–	442.55 ± 1.2
Liquid, visual observation in a variable volume cell:FP	236.4 ± 4.7	–

Liquid
Conditions	Critical pressure [kPa]	Critical temperature [K]
–	4027.3 ± 11	428.61 ± 0.11
